According to patent US9469642B2, “Purinone compounds as kinase inhibitors” (Pharmacyclics LLC, priority 2012, dated 2016):

Experiments:
Type in all cases: biochemical
BTK = molecular target: T1, BTK (Homo sapiens, UniProt Q06187); test: Btk in vitro inhibitory activity (kinase assay by one of Methods A, B or C)
T1 construct: purified from insect cells as a full-length construct containing a N-terminal 6×-His tag; His6 (N); host or cells: insect cells (baculovirus Sf21)
Procedure: (§1) Btk kinase activity is determined using a time-resolved fluorescence resonance energy transfer (TR-FRET) methodology. Measurements are performed in a reaction volume of 50 μL using 96-well assay plates. Kinase enzyme, inhibitor, ATP (at the Km for the kinase), and 1 peptide substrate (Biotin-AVLESEEELYSSARQ-NH2) are incubated in a reaction buffer composed of 20 mM Tris, 50 mM NaCl, MgCl2 (5-25 mM depending on the kinase), MnCl2 (0-10 mM), 1 mM DTT, 0.1 mM EDTA, 0.01% bovine serum albumin, 0.005% Tween-20, and 10% DMSO at pH 7.4 for one hour. The reaction is quenched by the addition of 1.2 equivalents of EDTA (relative to divalent cation) in 25 μL of 1× Lance buffer (Perkin-Elmer). Streptavidin-APC (Perkin-Elmer) and Eu-labeled p-Tyr100 antibody (Perkin-Elmer) in 1× Lance buffer are added in a 25 μL volume to give final concentrations of 100 nM and 2.5 nM, respectively, and the mixture is allowed to incubate for one hour. The TR-FRET signal is measured on a multimode plate reader with an excitation wavelength (λEx) of 330 nm and detection wavelengths (λEm) of 615 and 665 nm. Activity is determined by the ratio of the fluorescence at 665 nm to that at 615 nm. For each compound, enzyme activity is measured at various concentrations of compound. Negative control reactions are performed in the absence of inhibitor in replicates of six, and two no-enzyme controls are used to determine baseline fluorescence levels. Inhibition constants, Ki(app), were obtained using the program BatchKi (Kuzmic et al. (2000), Anal. Biochem. 286:45-50). IC50s are obtained according to the equation: IC50=[…]+[E]total/2;
(§2) For all kinases, [ATP]=Km^ATP, [Btk]total=0.5 nM and [Lck]total=6 nM.
(§3) Kinase activity is measured in vitro using electrophoretic mobility shift assay. The kinase reactions are assembled in a total volume of 25 μL in 384 well plates. The reactions comprise: BTK enzyme (1 nM, N-terminal His6-tagged, recombinant, full-length, human BTK purified from baculovirus Sf21 insect cell system), inhibitor, ATP (16 μM, the apparent Km for the kinase), fluorescently labeled peptide substrate (1 μM, FAM-GEEPLYWSFPAKKK-NH2) in a reaction buffer composed of 100 mM HEPES, pH7.5, 5 mM MgCl2 1 mM DTT, 0.1% bovine serum albumin, 0.01% Triton X-100, and 1% DMSO. The reaction is incubated for one hour and is quenched by the addition of 45 μL of termination buffer (100 mM HEPES, pH7.5, 0.01% Triton X-100, 30 mM EDTA). The terminated reactions are analyzed using 12 channel LabChip® 3000 microfluidic detection instrument (Caliper Life Sciences). The enzymatic phosphorylation of the peptide results in a change in net charge, enabling electrophoretic separation of product from substrate peptide. As substrate and product peptides are separated, two peaks of fluorescence are observed. Change in the relative fluorescence intensity of the substrate and product peaks is the parameter measured, reflecting enzyme activity. In the presence of an inhibitor, the ratio between product and substrate is altered:the signal of the product decreases, while the signal of the substrate increases.
(§4) Activity in each sample is determined as the product to sum ratio (PSR):P/(S+P), where P is the peak height of the product peptide and S is the peak height of the substrate peptide. For each compound, enzyme activity is measured at various concentrations (12 concentrations of compound spaced by 3× dilution intervals). Negative control samples (0%-inhibition in the absence of inhibitor) and positive control samples (100%-inhibition, in the presence of 20 mM EDTA) are assembled in replicates of four and are used to calculate %-inhibition values for each inhibitor at each concentration. Percent inhibition (Pinh) is determined using following equation: […]

EGFR = EGFR (Homo sapiens, UniProt P00533); test: Kinase panel inhibition, EGFR (one of the methods of Example 76a, 76b, 76c)
EGFR, sequence (P00533 25-1210, species assumed): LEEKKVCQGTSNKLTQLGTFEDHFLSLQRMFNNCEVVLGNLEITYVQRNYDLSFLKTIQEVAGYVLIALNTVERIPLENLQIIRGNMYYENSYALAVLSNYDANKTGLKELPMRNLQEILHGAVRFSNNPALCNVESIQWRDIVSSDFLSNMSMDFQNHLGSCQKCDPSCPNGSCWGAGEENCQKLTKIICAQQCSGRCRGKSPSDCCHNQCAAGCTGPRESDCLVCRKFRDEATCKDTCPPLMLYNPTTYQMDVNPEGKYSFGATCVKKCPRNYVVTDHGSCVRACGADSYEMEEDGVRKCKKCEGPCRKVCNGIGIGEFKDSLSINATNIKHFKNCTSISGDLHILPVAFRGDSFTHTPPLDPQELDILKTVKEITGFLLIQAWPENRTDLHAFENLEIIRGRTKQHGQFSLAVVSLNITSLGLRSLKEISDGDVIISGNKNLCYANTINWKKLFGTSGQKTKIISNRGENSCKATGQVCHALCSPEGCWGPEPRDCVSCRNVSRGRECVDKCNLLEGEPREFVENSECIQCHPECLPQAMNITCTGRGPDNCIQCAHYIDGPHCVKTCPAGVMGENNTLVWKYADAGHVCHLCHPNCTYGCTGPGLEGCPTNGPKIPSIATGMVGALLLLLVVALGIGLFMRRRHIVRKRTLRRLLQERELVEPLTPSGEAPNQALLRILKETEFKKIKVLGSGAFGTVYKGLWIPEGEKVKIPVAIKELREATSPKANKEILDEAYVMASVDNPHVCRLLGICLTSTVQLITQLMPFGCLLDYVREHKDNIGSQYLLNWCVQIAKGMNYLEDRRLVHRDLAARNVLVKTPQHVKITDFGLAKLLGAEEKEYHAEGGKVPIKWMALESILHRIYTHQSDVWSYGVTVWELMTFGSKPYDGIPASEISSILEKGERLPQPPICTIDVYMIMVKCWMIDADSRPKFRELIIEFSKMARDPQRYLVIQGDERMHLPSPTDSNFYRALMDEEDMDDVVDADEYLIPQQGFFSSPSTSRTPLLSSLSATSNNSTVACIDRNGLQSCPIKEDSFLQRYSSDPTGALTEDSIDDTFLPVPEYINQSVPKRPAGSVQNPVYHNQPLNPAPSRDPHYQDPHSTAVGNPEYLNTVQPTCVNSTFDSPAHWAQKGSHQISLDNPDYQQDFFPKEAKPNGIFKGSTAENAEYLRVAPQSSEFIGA
Procedure: as §1, §2, §3, §4

LCK = LCK (Homo sapiens, UniProt P06239); test: Kinase panel inhibition, LCK (one of the methods of Example 76a, 76b, 76c)
LCK, sequence (P06239 whole entry, species assumed): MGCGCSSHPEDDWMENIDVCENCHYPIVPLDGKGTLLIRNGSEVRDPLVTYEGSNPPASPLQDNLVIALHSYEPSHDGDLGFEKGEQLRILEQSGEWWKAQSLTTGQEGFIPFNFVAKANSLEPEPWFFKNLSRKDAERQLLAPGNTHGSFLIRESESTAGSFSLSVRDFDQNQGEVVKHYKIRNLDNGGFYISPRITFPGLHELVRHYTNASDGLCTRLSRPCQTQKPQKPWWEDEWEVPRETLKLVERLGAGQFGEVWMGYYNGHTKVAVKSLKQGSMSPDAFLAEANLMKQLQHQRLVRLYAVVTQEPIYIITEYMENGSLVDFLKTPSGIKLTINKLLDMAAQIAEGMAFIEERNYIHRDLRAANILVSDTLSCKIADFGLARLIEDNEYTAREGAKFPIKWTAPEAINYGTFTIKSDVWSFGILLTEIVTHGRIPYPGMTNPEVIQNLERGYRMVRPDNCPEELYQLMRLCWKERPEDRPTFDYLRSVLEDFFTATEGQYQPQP
Procedure: as §1, §2, §3, §4

T1 sequence (Q06187 whole entry): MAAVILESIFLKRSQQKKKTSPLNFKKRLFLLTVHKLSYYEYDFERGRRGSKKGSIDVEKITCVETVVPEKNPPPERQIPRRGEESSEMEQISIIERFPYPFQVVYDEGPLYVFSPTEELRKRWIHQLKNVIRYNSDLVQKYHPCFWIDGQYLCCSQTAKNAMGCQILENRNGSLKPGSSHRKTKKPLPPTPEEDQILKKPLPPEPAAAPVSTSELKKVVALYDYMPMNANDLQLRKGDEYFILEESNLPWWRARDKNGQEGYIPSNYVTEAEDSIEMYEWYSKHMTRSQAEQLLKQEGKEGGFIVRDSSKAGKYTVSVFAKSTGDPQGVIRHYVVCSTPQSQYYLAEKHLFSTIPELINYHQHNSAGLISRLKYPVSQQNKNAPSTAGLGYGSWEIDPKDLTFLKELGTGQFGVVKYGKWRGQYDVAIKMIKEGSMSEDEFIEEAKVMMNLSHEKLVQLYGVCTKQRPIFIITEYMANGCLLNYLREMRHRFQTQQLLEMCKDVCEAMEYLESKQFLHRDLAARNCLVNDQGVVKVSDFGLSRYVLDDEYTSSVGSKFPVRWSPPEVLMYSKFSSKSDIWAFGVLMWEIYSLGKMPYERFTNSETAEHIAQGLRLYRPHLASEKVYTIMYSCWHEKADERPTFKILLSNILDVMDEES

IC50 (BTK)	IC50 (EGFR)	IC50 (LCK)	Structure (SMILES)
< 100 nM	1000 to 10000 nM	1000 to 10000 nM	CN(C(=O)/C=C/CN(C)[C@@H]1CCOC1)c1cccc(-n2c(=O)n(-c3ccc(Oc4ccccc4)cc3)c3c(N)ncnc32)c1 [Compound 129, (R,E)-N-(3-(6-amino-8-oxo-7-(4-phenoxyphenyl)-7H-purin-9(8H)-yl)phenyl)-N-methyl-4-(methyl(tetrahydrofuran-3-yl)amino)but-2-enamide]
< 100 nM	100 to 1000 nM	100 to 1000 nM	CN(C/C=C/C(=O)Nc1cccc(-n2c(=O)n(-c3ccc(Oc4ccccc4)cc3)c3c(N)ncnc32)c1)[C@H]1CCOC1 [Compound 317, (S,E)-N-(3-(6-amino-8-oxo-7-(4-phenoxyphenyl)-7H-purin-9(8H)-yl)phenyl)-4-(methyl(tetrahydrofuran-3-yl)amino)but-2-enamide]
< 100 nM	100 to 1000 nM	1000 to 10000 nM	CN(C/C=C/C(=O)N1CCOc2ccc(-n3c(=O)n(-c4ccc(Oc5cccc(F)c5)cc4)c4c(N)ncnc43)cc21)C1CC1 [Compound 306, (E)-6-amino-9-(4-(4-(cyclopropyl(methyl)amino)but-2-enoyl)-3,4-dihydro-2H-benzo[b][1,4]oxazin-6-yl)-7-(4-(3-fluorophenoxy)phenyl)-7H-purin-8(9H)-one]
< 100 nM			Nc1ncnc2c1n(-c1ccc(Oc3ccccc3)cc1)c(=O)n2-c1cccc(NC(=O)/C=C/CNC2CC2)c1 [Compound 116, (E)-N-(3-(6-amino-8-oxo-7-(4-phenoxyphenyl)-7H-purin-9(8H)-yl)phenyl)-4-(cyclopropylamino)but-2-enamide]
100 to 1000 nM			CN(C(=O)/C=C/CN)c1cccc(-n2c(=O)n(-c3ccc(Oc4ccccc4)cc3)c3c(N)ncnc32)c1 [Compound 326, (E)-4-amino-N-(3-(6-amino-8-oxo-7-(4-phenoxyphenyl)-7H-purin-9(8H)-yl)phenyl)-N-methylbut-2-enamide]
100 to 1000 nM			CN(C(=O)/C=C/CN(C)C1CC1)c1cccc(-n2c(=O)n(-c3ccc(C(=O)Nc4ccccc4)cc3)c3c(N)ncnc32)c1 [Compound 280, (E)-4-(6-amino-9-(3-(4-(cyclopropyl(methyl)amino)-N-methylbut-2-enamido)phenyl)-8-oxo-8,9-dihydro-7H-purin-7-yl)-N-phenylbenzamide]
< 100 nM			COc1cc(NC(=O)/C=C/CN(C)C2CC2)cc(-n2c(=O)n(-c3ccc(Oc4ccccc4)cc3)c3c(N)ncnc32)c1 [Compound 263, (E)-N-(3-(6-amino-8-oxo-7-(4-phenoxyphenyl)-7H-purin-9(8H)-yl)-5-methoxyphenyl)-4-(cyclopropyl(methyl)amino)but-2-enamide]
< 100 nM			CN(C(=O)/C=C/CN(C)C1CC1)c1cccc(-n2c(=O)n(-c3ccc(NC(=O)c4ccccc4)cc3)c3c(N)ncnc32)c1 [Compound 274, (E)-N-(4-(6-amino-9-(3-(4-(cyclopropyl(methyl)amino)-N-methylbut-2-enamido)phenyl)-8-oxo-8,9-dihydro-7H-purin-7-yl)phenyl)benzamide]
100 to 1000 nM			COc1ccc(N(C)C(=O)/C=C/CN(C)C2CC2)cc1-n1c(=O)n(-c2ccc(Oc3ccccc3)cc2)c2c(N)ncnc21 [Compound 181, (E)-N-(3-(6-amino-8-oxo-7-(4-phenoxyphenyl)-7H-purin-9(8H)-yl)-4-methoxyphenyl)-4-(cyclopropyl(methyl)amino)-N-methylbut-2-enamide]
< 100 nM			CN(C(=O)/C=C/CN(C)C1CC1)c1cccc(-n2c(=O)n(-c3ccc(Oc4ccc(O)cc4)cc3)c3c(N)ncnc32)c1 [Compound 269, (E)-N-(3-(6-amino-7-(4-(4-hydroxyphenoxy)phenyl)-8-oxo-7H-purin-9(8H)-yl)phenyl)-4-(cyclopropyl(methyl)amino)-N-methylbut-2-enamide]

More lines, now with the values behind:

Structure (SMILES)	IC50 (BTK)	IC50 (EGFR)	IC50 (LCK)
CN(C(=O)/C=C/CN(C)C1CCC1)c1ccc(-n2c(=O)n(-c3ccc(Oc4ccccc4)cc3)c3c(N)ncnc32)cc1 [Compound 45, (E)-N-(4-(6-amino-8-oxo-7-(4-phenoxyphenyl)-7H-purin-9(8H)-yl)phenyl)-4-(cyclobutyl(methyl)amino)-N-methylbut-2-enamide]	< 100 nM	1000 to 10000 nM	100 to 1000 nM
C=CC(=O)N1CCC[C@@H](n2c(=O)n(-c3ccc(Cl)cc3)c3c(N)ncnc32)C1 [Compound 90, (R)-9-(1-acryloylpiperidin-3-yl)-6-amino-7-(4-chlorophenyl)-7H-purin-8(9H)-one]	< 100 nM		
CN(C(=O)/C=C/CN(C)C1CCC1)c1cccc(-n2c(=O)n(-c3ccc(Oc4ccccc4)cc3)c3c(N)ncnc32)c1 [Compound 35, (E)-N-(3-(6-amino-8-oxo-7-(4-phenoxyphenyl)-7H-purin-9(8H)-yl)phenyl)-4-(cyclobutyl(methyl)amino)-N-methylbut-2-enamide]	< 100 nM		
CN(C)C/C=C/C(=O)N1CC[C@@H](n2c(=O)n(-c3ccc(Cl)cc3)c3c(N)ncnc32)C1 [Compound 67, (R,E)-6-amino-7-(4-chlorophenyl)-9-(1-(4-(dimethylamino)but-2-enoyl)pyrrolidin-3-yl)-7H-purin-8(9H)-one]	100 to 1000 nM	> 10000 nM	1000 to 10000 nM
C=CC(=O)N1CC[C@@H](n2c(=O)n(-c3ccc(C)c(OC)c3)c3c(N)ncnc32)C1 [Compound 82, (R)-9-(1-acryloylpyrrolidin-3-yl)-6-amino-7-(3-methoxy-4-methylphenyl)-7H-purin-8(9H)-one]	< 100 nM		
CN(C)C/C=C/C(=O)N(C)c1ccc(-n2c(=O)n(-c3ccc(Cl)cc3)c3c(N)ncnc32)cc1 [Compound 48, (E)-N-(4-(6-amino-7-(4-chlorophenyl)-8-oxo-7H-purin-9(8H)-yl)phenyl)-4-(dimethylamino)-N-methylbut-2-enamide]	100 to 1000 nM	> 10000 nM	1000 to 10000 nM
CN(C(=O)/C=C/CN(C)C1CC1)c1ccc(-n2c(=O)n(-c3ccc(Cl)cc3)c3c(N)ncnc32)cc1 [Compound 49, (E)-N-(4-(6-amino-7-(4-chlorophenyl)-8-oxo-7H-purin-9(8H)-yl)phenyl)-4-(cyclopropyl(methyl)amino)-N-methylbut-2-enamide]	100 to 1000 nM	> 10000 nM	1000 to 10000 nM
C=CC(=O)N(C)c1cccc(-n2c(=O)n(-c3ccc(Cl)cc3)c3c(N)ncnc32)c1 [Compound 77, N-(3-(6-amino-7-(4-chlorophenyl)-8-oxo-7H-purin-9(8H)-yl)phenyl)-N-methylacrylamide]	< 100 nM		
C=CC(=O)N1CCC[C@@H](n2c(=O)n(-c3ccc(C)c(OC)c3)c3c(N)ncnc32)C1 [Compound 93, (R)-9-(1-acryloylpiperidin-3-yl)-6-amino-7-(3-methoxy-4-methylphenyl)-7H-purin-8(9H)-one]	< 100 nM		
C=CC(=O)N(C)c1cccc(-n2c(=O)n(-c3ccc(C)c(OC)c3)c3c(N)ncnc32)c1 [Compound 76, N-(3-(6-amino-7-(3-methoxy-4-methylphenyl)-8-oxo-7H-purin-9(8H)-yl)phenyl)-N-methylacrylamide]	< 100 nM		
C=CC(=O)N1CC[C@@H](n2c(=O)n(-c3ccc(Cl)cc3)c3c(N)ncnc32)C1 [Compound 78, (R)-9-(1-acryloylpyrrolidin-3-yl)-6-amino-7-(4-chlorophenyl)-7H-purin-8(9H)-one]	< 100 nM		
